According to US8501781B2 (priority 2009, dated 2013):
Marks after values point to notes of the source that are not given here.

Assay: logP by HPLC (EEC Directive 79/831 Annex V.A8)
Type: physicochemical
[1] = [b] LC-MS, acidic range, pH 2.7, 0.1% aqueous formic acid and acetonitrile
[2] = [c] LC-MS, neutral range, pH 7.8, 0.001 molar aqueous ammonium bicarbonate and acetonitrile

Compound | logP [1] | logP [2]
Cc1cc(C)cc(CC(=O)N2CCC(c3nc(C(=O)OC4CCCCC4)cs3)CC2)c1 [Example 65] | 4.32 | 4.34
Cc1ccc(CC(=O)N2CCC(c3nc(C(=O)OC4CCCCC4)cs3)CC2)c(C)c1 [Example 66] | 4.3 | 4.33
O=C(OC1CCCCC1)c1csc(C2CCN(C(=S)Nc3cc(F)ccc3F)CC2)n1 [Example 67] | 3.86^[b] | –
O=C(OC1CCCc2ccccc21)c1csc(C2(F)CCN(C(=O)Cn3nc(C(F)F)cc3C(F)F)CC2)n1 (centres unmarked) [Example 68] | 4.12^[b] | –
O=C(OC1CCCCC1)c1csc(C2(F)CCN(C(=O)Cn3nc(C(F)F)cc3C(F)F)CC2)n1 [Example 69] | 3.91^[b] | –
COc1ccc(C)cc1NC(=O)N1CCC(c2nc(C(=O)OC3CCCCC3)cs2)CC1 [Example 71] | 4.18^[b] | –
Cc1ccc(Cl)cc1NC(=O)N1CCC(c2nc(C(=O)OC3CCCCC3)cs2)CC1 [Example 72] | 4.10^[b] | –
Cc1noc(C)c1NC(=S)N1CCC(c2nc(C(=O)OC3CCCCC3)cs2)CC1 [Example 73] | 3.18^[b] | –
Cc1ccc(F)cc1NC(=O)N1CCC(c2nc(C(=O)OC3CCCCC3)cs2)CC1 [Example 74] | 3.74^[b] | –
COc1ccc(Cl)cc1NC(=O)N1CCC(c2nc(C(=O)OC3CCCCC3)cs2)CC1 [Example 75] | 4.35^[b] | –
Cc1noc(C)c1NC(=O)N1CCC(c2nc(C(=O)OC3CCCCC3)cs2)CC1 [Example 76] | 2.66^[b] | –
COc1ccc(OC)c(NC(=O)N2CCC(c3nc(C(=O)OC4CCCc5ccccc54)cs3)CC2)c1 (centres unmarked) [Example 77] | 4.05^[b] | –
Cc1ccc(C)c(NC(=O)N2CCC(c3nc(C(=O)OC4CCCc5ccccc54)cs3)CC2)c1 (centres unmarked) [Example 78] | 4.09^[b] | –
Cc1ccc(F)cc1NC(=O)N1CCC(c2nc(C(=O)OC3CCCc4ccccc43)cs2)CC1 (centres unmarked) [Example 79] | 4.00^[b] | –
Cc1ccc(F)c(NC(=O)N2CCC(c3nc(C(=O)OC4CCCc5ccccc54)cs3)CC2)c1 (centres unmarked) [Example 80] | 4.08^[b] | –
Cc1ccc(C)c(NC(=S)N2CCC(c3nc(C(=O)OC4CCCc5ccccc54)cs3)CC2)c1 (centres unmarked) [Example 81] | 4.39^[b] | –
COc1ccc(C)cc1NC(=O)N1CCC(c2nc(C(=O)OC3CCCc4ccccc43)cs2)CC1 (centres unmarked) [Example 82] | 4.33^[b] | –
O=C(OC1CCCCC1)c1csc(C2CCN(C(=O)CC3CCCC3)CC2)n1 [Example 83] | 4.15 | 4.12
O=C(OCc1ccccc1Br)c1csc(C2CCN(C(=O)Nc3cc(F)ccc3F)CC2)n1 [Example 84] | 3.79^[c]; 3.79^[b] | 3.79^[c]; 3.79^[b]
Cc1ccc(Cl)cc1NC(=O)N1CCC(c2nc(C(=O)OCc3ccccc3Br)cs2)CC1 [Example 85] | 4.04 | 4.06
Cc1cc(CC(=O)N2CCC(c3nc(C(=O)OC4CCCCC4)cs3)CC2)n(C)n1 [Example 86] | 2.6 | 2.67
O=C(OCc1ccccc1Br)c1csc(C2CCN(C(=O)Cc3cc(Cl)ccc3Cl)CC2)n1 [Example 87] | 4.41 | 4.44
Cc1ccc(C)c(NC(=S)N2CCC(c3nc(C(=O)OCc4ccccc4Br)cs3)CC2)c1 [Example 88] | 3.68 | 3.71

Compound | logP [1] | logP [2]
Cc1cc(CC(=O)N2CCC(c3nc(C(=O)OC4CCCCC4)cs3)CC2)nn1C [Example 89] | 2.66 | 2.68
Cc1ccc(F)cc1NC(=O)N1CCC(c2nc(C(=O)OCc3ccccc3Br)cs2)CC1 [Example 90] | 3.77 | 3.75
Cc1ccc(C)c(NC(=O)N2CCC(c3nc(C(=O)OCc4ccccc4Br)cs3)CC2)c1 [Example 91] | 3.86 | 3.84
Cc1ccc(F)c(NC(=O)N2CCC(c3nc(C(=O)OCc4ccccc4Br)cs3)CC2)c1 [Example 92] | 3.85 | 3.83
COc1ccc(OC)c(NC(=O)N2CCC(c3nc(C(=O)OC4CCCCC4)cs3)CC2)c1 [Example 93] | 3.76^[b] | –
Cc1ccc([N+](=O)[O-])cc1NC(=O)N1CCC(c2nc(C(=O)OC3CCCCC3)cs2)CC1 [Example 94] | 3.62^[b] | –
O=C(OC1CCCc2ccccc21)c1csc(C2CCN(C(=O)Nc3cc(Cl)ccc3Cl)CC2)n1 (centres unmarked) [Example 95] | 4.92^[b] | –
Cc1ccc(C)c(CC(=O)N2CCC(c3nc(C(=O)OC4CCCc5ccccc54)cs3)CC2)c1 (centres unmarked) [Example 96] | 4.54^[b] | –
COc1ccc(Cl)cc1NC(=O)N1CCC(c2nc(C(=O)OC3CCCc4ccccc43)cs2)CC1 (centres unmarked) [Example 97] | 4.64^[b] | –
Cc1noc(C)c1NC(=O)N1CCC(c2nc(C(=O)OC3CCCc4ccccc43)cs2)CC1 (centres unmarked) [Example 98] | 2.97^[b] | –
O=C(OC1CCCc2ccccc21)c1csc(C2CCN(C(=O)Cc3cc(Cl)ccc3Cl)CC2)n1 (centres unmarked) [Example 99] | 4.73^[b] | –
Cc1ccc(Cl)c(NC(=O)N2CCC(c3nc(C(=O)OC4CCCc5ccccc54)cs3)CC2)c1 (centres unmarked) [Example 100] | 4.61^[b] | –
O=C(OCc1ccccc1Br)c1csc(C2CCN(C(=O)Cc3cc(Br)ccc3Br)CC2)n1 [Example 101] | 4.68 | 4.64
Cc1ccc(C)c(CC(=O)N2CCC(c3nc(C(=O)OCc4ccccc4Br)cs3)CC2)c1 [Example 102] | 4.23 | 4.27
COc1ccc(OC)c(NC(=O)N2CCC(c3nc(C(=O)OCc4ccccc4Br)cs3)CC2)c1 [Example 103] | 3.83 | 3.81
COc1ccc(C)cc1NC(=O)N1CCC(c2nc(C(=O)OCc3ccccc3Br)cs2)CC1 [Example 104] | 4.08 | 4.12
COc1ccc(Cl)cc1NC(=O)N1CCC(c2nc(C(=O)OCc3ccccc3Br)cs2)CC1 [Example 105] | 4.35 | 4.36
O=C(OCc1ccccc1Br)c1csc(C2CCN(C(=O)Nc3cc(C(F)(F)F)ccc3Cl)CC2)n1 [Example 106] | 4.7 | 4.75
Cc1ccc(Cl)c(NC(=O)N2CCC(c3nc(C(=O)OCc4ccccc4Br)cs3)CC2)c1 [Example 107] | 4.28 | 4.33
O=C(OCc1ccccc1Br)c1csc(C2CCN(C(=O)Nc3cc(Cl)ccc3Cl)CC2)n1 [Example 108] | 4.56 | 4.61
Cn1nc(C(F)(F)F)cc1OC(=O)N1CCC(c2nc(C(=O)OC3CCCCC3)cs2)CC1 [Example 109] | 4.36 | 4.37
Cc1ccc([N+](=O)[O-])cc1NC(=O)N1CCC(c2nc(C(=O)OCc3ccccc3Br)cs2)CC1 [Example 110] | 3.69 | 3.70
O=C(OCc1ccccc1Br)c1csc(C2CCN(C(=O)Nc3cc(C(F)(F)F)ccc3F)CC2)n1 [Example 111] | 4.29^[c]; 4.29^[b] | 4.29^[c]; 4.29^[b]

Compound | logP [1] | logP [2]
Cc1ccc(Cl)cc1NC(=S)N1CCC(c2nc(C(=O)OCc3ccccc3Br)cs2)CC1 [Example 112] | 4.3 | 4.27
O=C(OCc1ccccc1Br)c1csc(C2CCN(C(=S)Nc3cc(Cl)ccc3Cl)CC2)n1 [Example 113] | 4.4 | 4.39
O=C(OCc1ccccc1Br)c1csc(C2CCN(C(=S)Nc3cc(F)ccc3Br)CC2)n1 [Example 114] | 4.04 | 4.02
O=C(OCc1ccccc1Br)c1csc(C2CCN(C(=S)Nc3cc(Cl)ccc3F)CC2)n1 [Example 115] | 4.15 | 4.14
O=C(OCc1ccccc1Br)c1csc(C2CCN(C(=S)Nc3cc(F)ccc3F)CC2)n1 [Example 116] | 3.83 | 3.87
Cc1ccc(F)cc1NC(=S)N1CCC(c2nc(C(=O)OCc3ccccc3Br)cs2)CC1 [Example 117] | 3.98^[c]; 3.98^[b] | 3.98^[c]; 3.98^[b]
O=C(OCc1ccccc1Br)c1csc(C2CCN(C(=S)Nc3cc(C(F)(F)F)ccc3F)CC2)n1 [Example 118] | 4.34 | 4.37
Cc1noc(C)c1NC(=S)N1CCC(c2nc(C(=O)OCc3ccccc3Br)cs2)CC1 [Example 119] | 3.2 | 3.21
Cc1ccc(C)c(NC(=O)N2CCC(c3nc(C(=O)OCc4c(F)cccc4Cl)cs3)CC2)c1 [Example 120] | 3.66^[b] | –
Cc1ccc(C)c(NC(=O)N2CCC(c3nc(C(=O)OCc4c(F)cccc4F)cs3)CC2)c1 [Example 121] | 3.38^[b] | –
Cc1ccc(C)c(NC(=O)N2CCC(c3nc(C(=O)O[C@@H]4CCCC[C@H]4c4ccccc4)cs3)CC2)c1 [Example 122] | 4.43^[b] | –
Cc1ccc(C)c(NC(=O)N2CCC(c3nc(C(=O)O[C@H]4CCCC[C@@H]4c4ccccc4)cs3)CC2)c1 [Example 123] | 4.42^[b] | –
O=C(OC1CCCc2ccccc21)c1csc(C2CCN(C(=S)Nc3cc(F)ccc3F)CC2)n1 (centres unmarked) [Example 124] | 4.06 | 3.94
Cc1ccc(Cl)cc1NC(=O)N1CCC(c2nc(C(=O)OC3CCCc4ccccc43)cs2)CC1 (centres unmarked) [Example 125] | 4.27 | 4.14
Cc1ccc(C)c(NC(=O)N2CCC(F)(c3nc(C(=O)O[C@@H]4CCCc5ccccc54)cs3)CC2)c1 [Example 126] | 4.30^[b] | –
Cc1cc(C(F)(F)F)nn1CC(=O)N1CCC(F)(c2nc(C(=O)O[C@@H]3CCCc4ccccc43)cs2)CC1 [Example 127] | 4.25^[b] | –
Cc1ccc(C)c(NC(=O)N2CCC(c3nc(C(=O)OCc4ccccc4Cl)cs3)CC2)c1 [Example 135] | 3.73^[b] | –
Cc1ccc(C)c(NC(=O)N2CCC(c3nc(C(=O)OCc4ccccc4I)cs3)CC2)c1 [Example 136] | 3.96^[b] | –
Cc1ccc(C)c(NC(=O)N2CCC(c3nc(C(=O)OCc4c(Cl)cccc4Cl)cs3)CC2)c1 [Example 137] | 3.97^[b] | –
COc1cccc(F)c1C(C)OC(=O)c1csc(C2CCN(C(=O)Nc3cc(C)ccc3C)CC2)n1 (centres unmarked) [Example 138] | 3.79^[b] | –
Cc1ccc(C)c(NC(=O)N2CCC(c3nc(C(=O)OCc4ccncc4Cl)cs3)CC2)c1 [Example 139] | 2.77^[b] | –
Cc1ccc(C)c(NC(=O)N2CCC(c3nc(C(=O)OCc4ccccc4F)cs3)CC2)c1 [Example 140] | 3.39^[b] | –
